The values that follow come from patent publication US11802120B2, “Fused cyclic urea derivatives as CRHR2 antagonist” (RaQualia Pharma Inc., priority 2018, dated 2023).

For the assay, the target named is T1, human CRHR2-alpha (Homo sapiens, UniProt Q13324).
T1 sequence (Q13324 1-411): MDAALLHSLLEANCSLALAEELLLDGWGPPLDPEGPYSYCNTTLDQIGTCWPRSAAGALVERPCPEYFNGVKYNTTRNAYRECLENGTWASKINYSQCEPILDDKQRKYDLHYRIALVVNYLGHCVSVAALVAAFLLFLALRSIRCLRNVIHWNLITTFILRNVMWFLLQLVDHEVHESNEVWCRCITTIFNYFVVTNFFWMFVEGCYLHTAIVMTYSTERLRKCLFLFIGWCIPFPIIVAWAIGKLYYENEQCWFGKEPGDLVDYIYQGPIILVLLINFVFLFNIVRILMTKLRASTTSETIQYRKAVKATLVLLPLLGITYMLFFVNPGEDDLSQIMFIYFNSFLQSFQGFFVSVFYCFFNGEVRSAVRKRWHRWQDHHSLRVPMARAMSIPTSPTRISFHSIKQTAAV
As to the kind of experiment: cAMP functional assay for human CRHR2 (LANCE Ultra cAMP, TR-FRET). Format: cell-based. The following applies: CHO-K1 cells expressing human CRHR2-alpha, agonist human urocortin2 at EC80, cAMP; read-out: IC50 against CRHR2. Summed up:
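CHO-K1 cells stably expressing each receptor, serum-starved and cryopreserved, were preincubated with compound 30 min at 25° C in HBSS buffer with 0.5 mM IBMX, pH 7.4, then stimulated 30 min with EC80 agonist (urocortin2 for CRHR2, CRF for CRHR1). cAMP read by TR-FRET; IC50 from percent-inhibition curves.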
With `O=C(N[C@H]1CC[C@H](Cn2c(=O)n(-c3ccc4ncccc4c3)c3ccccc32)CC1)c1cc(Cl)cnc1C(F)(F)F` [Example 351, 5-chloro-N-((1r,4r)-4-((2-oxo-3-(quinolin-6-yl)-2,3-dihydro-1H-benzo[d]imidazol-1-yl)methyl)cyclo-hexyl)-2-(trifluoromethyl) nicotinamide], the IC50 was below 300 nM.
The figure for `O=C(N[C@H]1CC[C@H](Cn2c(=O)n(-c3cnc4ccccc4c3)c3ccccc32)CC1)c1cc(Cl)cnc1C(F)(F)F` [Example 352, 5-chloro-N-((1r,4r)-4-((2-oxo-3-(quinolin-3-yl)-2,3-dihydro-1H-benzo[d]imidazol-1-yl)methyl)cyclo-hexyl)-2-(trifluoromethyl) nicotinamide] is below 300 nM; for `O=C(N[C@H]1CC[C@H](Cn2c(=O)n(-c3cccc4cccnc34)c3ccccc32)CC1)c1cc(Cl)cnc1C(F)(F)F` [Example 353, 5-chloro-N-((1r,4r)-4-((2-oxo-3-(quinolin-8-yl)-2,3-dihydro-1H-benzo[d]imidazol-1-yl)methyl)cyclo-hexyl)-2-(trifluoromethyl) nicotinamide] it is below 300 nM; for `O=C(N[C@H]1CC[C@H](Cn2c(=O)n(-c3cncc4ccccc34)c3ccccc32)CC1)c1cc(Cl)cnc1C(F)(F)F` [Example 354, 5-chloro-N-((1r,4r)-4-((3-(isoquinolin-4-yl)-2-oxo-2,3-dihydro-1H-benzo[d]imidazol-1-yl)methyl)cyclo-hexyl)-2-(trifluoromethyl) nicotinamide] it is below 300 nM.
The figure for `CCc1nc2ncc(-n3c(=O)n(C[C@H]4CC[C@H](NC(=O)c5cc(Cl)cnc5C)CC4)c4ccccc43)cc2o1` [Example 355, 5-chloro-N-((1r,4r)-4-((3-(2-ethyloxazolo[4,5-b]pyridin-6-yl)-2-oxo-2,3-dihydro-1H-benzo[d]imidazol-1-yl)methyl)cyclohexyl)-2-methylnicotinamide] is below 300 nM.
The figure for `Cc1nc2ncc(-n3c(=O)n(C[C@H]4CC[C@H](NC(=O)c5cc(Cl)cnc5C)CC4)c4ccccc43)cc2o1` [Example 356, 5-chloro-2-methyl-N-((1r,4r)-4-((3-(2-methyloxazolo[4,5-b]pyridin-6-yl)-2-oxo-2,3-dihydro-1H-benzo[d]imidazol-1-yl)methyl)cyclohexyl)nicotinamide] is below 300 nM; for `Cc1cc(OCCO)ncc1-n1c(=O)n(C[C@H]2CC[C@H](NC(=O)c3cc(Cl)cnc3C(F)(F)F)CC2)c2ccccc21` [Example 357, 5-chloro-N-((1r,4r)-4-((3-(6-(2-hydroxyethoxy)-4-methylpyridin-3-yl)-2-oxo-2,3-dihydro-1H-benzo[d]imidazol-1-yl)methyl)cyclohexyl)-2-(trifluoromethyl)nicotinamide] it is below 300 nM; for `Cc1ncc(Cl)cc1C(=O)N[C@H]1CC[C@H](Cn2c(=O)n(-c3ccc4ncccc4c3)c3cccnc32)CC1` [Example 358, 5-chloro-2-methyl-N-((1r,4r)-4-((2-oxo-1-(quinolin-6-yl)-1H-imidazo[4,5-b]pyridin-3(2H)-yl)methyl)cyclohexyl) nicotinamide] it is below 300 nM.
Regarding `Cc1ncc(Cl)cc1C(=O)N[C@H]1CC[C@H](Cn2c(=O)n(-c3cnc4ccccc4c3)c3cccnc32)CC1` [Example 359, 5-chloro-2-methyl-N-((1r,4r)-4-((2-oxo-1-(quinolin-3-yl)-1H-imidazo[4,5-b]pyridin-3(2H)-yl)methyl)cyclohexyl) nicotinamide], the IC50 was below 300 nM.
In the case of `O=C(N[C@H]1CC[C@H](Cn2c(=O)n(-c3ccc4ncccc4c3)c3cccnc32)CC1)c1cc(Cl)cnc1C(F)(F)F` [Example 360, 5-chloro-N-((1r,4r)-4-((2-oxo-1-(quinolin-6-yl)-1H-imidazo [4,5-b]pyridin-3(2H)-yl)methyl)cyclohexyl)-2-(trifluoromethyl) nicotinamide], the concentration for half-maximal inhibition (IC50) was below 300 nM.
Turning to `O=C(N[C@H]1CC[C@H](Cn2c(=O)n(-c3ccc4ncccc4c3)c3cccnc32)CC1)c1cc(Cl)cnc1C(F)F` [Example 361, 5-chloro-2-(difluoromethyl)-N-((1r,4r)-4-((2-oxo-1-(quinolin-6-yl)-1H-imidazo[4,5-b]pyridin-3(2H)-yl)methyl)cyclohexyl) nicotinamide], the half-inhibitory concentration (IC50) is below 300 nM.
Consider `O=C(N[C@H]1CC[C@H](Cn2c(=O)n(-c3ccc4ncccc4c3)c3ncccc32)CC1)c1cc(Cl)cnc1C(F)F` [Example 362, 5-chloro-2-(difluoromethyl)-N-((1r,4r)-4-((2-oxo-3-(quinolin-6-yl)-2,3-dihydro-1H-imidazo[4,5-b]pyridin-1-yl)methyl)cyclohexyl)nicotinamide], for which the 50% inhibitory concentration (IC50) is below 300 nM.
The figure for `CNC(=O)c1cc(C)c(-n2c(=O)n(C[C@H]3CC[C@H](NC(=O)c4cc(Cl)cnc4C(F)F)CC3)c3ccccc32)cn1` [Example 363, 5-(3-(((1r,4r)-4-(5-chloro-2-(difluoromethyl)nicotinamido)cyclohexyl)methyl)-2-oxo-2,3-dihydro-1H-benzo[d]imidazol-1-yl)-N,4-dimethylpicolinamide] is below 300 nM.
Turning to `Cc1nccc(-n2c(=O)n(C[C@H]3CC[C@H](NC(=O)c4cc(Cl)cnc4C(F)F)CC3)c3ccccc32)c1C` [Example 364, 5-chloro-2-(difluoromethyl)-N-((1r,4r)-4-((3-(2,3-dimethyl-pyridin-4-yl)-2-oxo-2,3-dihydro-1H-benzo[d]imidazol-1-yl)methyl)cyclohexyl)nicotinamide], the IC50 was below 300 nM.
On to `O=C(N[C@H]1CC[C@H](Cn2c(=O)n(-c3ccc(OCCO)nc3)c3ccccc32)CC1)c1cc(Cl)cnc1C(F)F` [Example 365, 5-chloro-2-(difluoromethyl)-N-((1r,4r)-4-((3-(6-(2-hydroxyethoxy)pyridin-3-yl)-2-oxo-2,3-dihydro-1H-benzo[d]imidazol-1-yl)methyl)cyclohexyl)nicotinamide], for which the IC50 was below 300 nM.
The figure for `O=C(N[C@H]1CC[C@H](Cn2c(=O)n(-c3ccccc3Cl)c3ncccc32)CC1)c1cc(Cl)cnc1C(F)F` [Example 366, 5-chloro-N-((1r,4r)-4-((3-(2-chlorophenyl)-2-oxo-2,3-dihydro-1H-imidazo[4,5-b]pyridin-1-yl)methyl)cyclo-hexyl)-2-(difluoromethyl) nicotinamide] is below 300 nM.
The figure for `O=C(N[C@H]1CC[C@H](Cn2c(=O)n(-c3ccccc3Cl)c3ccncc32)CC1)c1cc(Cl)cnc1C(F)F` [Example 367, 5-chloro-N-((1r,4r)-4-((1-(2-chlorophenyl)-2-oxo-1H-imidazo[4,5-c]pyridin-3(2H)-yl)methyl)cyclohexyl)-2-(difluoromethyl)nicotinamide] is below 300 nM; for `N#Cc1ncccc1-n1c(=O)n(C[C@H]2CC[C@H](NC(=O)c3cc(Cl)cnc3C(F)F)CC2)c2ccccc21` [Example 368, 5-chloro-N-((1r,4r)-4-((3-(2-cyanopyridin-3-yl)-2-oxo-2,3-dihydro-1H-benzo[d]imidazol-1-yl)methyl)cyclo-hexyl)-2-(difluoromethyl) nicotinamide] it is below 300 nM.
In the case of `N#Cc1nccnc1-n1c(=O)n(C[C@H]2CC[C@H](NC(=O)c3cc(Cl)cnc3C(F)F)CC2)c2ccccc21` [Example 369, 5-chloro-N-((1r,4r)-4-((3-(3-cyanopyrazin-2-yl)-2-oxo-2,3-dihydro-1H-benzo[d]imidazol-1-yl)methyl)cyclohexyl)-2-(difluoromethyl)nicotinamide], the IC50 is below 300 nM.
